Data: patent publication EP3839043A1, “SCREENING METHODS FOR COMPOUNDS MODULATING POLYAMINE TRANSPORT” (Katholieke Universiteit Leuven, priority 2019, dated 2021)
Counter-ions that a name gives are not always drawn.

What was measured:
Microsomal ATP13A2 = target: T1, Microsomal ATP13A2 (Homo sapiens, UniProt Q9NQ11); assay: ATPase assay (ADP-Glo Max), solubilized microsomes of SH-SY5Y cells overexpressing ATP13A2 WT; type: biochemical; details: for ATPase activity of ATP13A2, dose-response: indicated doses, microsomes 5 µg; for ATPase activity of ATP13A2 WT, screen for candidate substrates: 100 nM CaCl2, MnCl2, ZnCl2 or FeCl3, 100 µM SPD or SPM
T1 construct: expressed in transfected cells; host or cells: SH-SY5Y human neuroblastoma cells, lentiviral transduction; microsomes solubilised with DDM
T1 sequence (Q9NQ11 1-1175 isoform Q9NQ11-3): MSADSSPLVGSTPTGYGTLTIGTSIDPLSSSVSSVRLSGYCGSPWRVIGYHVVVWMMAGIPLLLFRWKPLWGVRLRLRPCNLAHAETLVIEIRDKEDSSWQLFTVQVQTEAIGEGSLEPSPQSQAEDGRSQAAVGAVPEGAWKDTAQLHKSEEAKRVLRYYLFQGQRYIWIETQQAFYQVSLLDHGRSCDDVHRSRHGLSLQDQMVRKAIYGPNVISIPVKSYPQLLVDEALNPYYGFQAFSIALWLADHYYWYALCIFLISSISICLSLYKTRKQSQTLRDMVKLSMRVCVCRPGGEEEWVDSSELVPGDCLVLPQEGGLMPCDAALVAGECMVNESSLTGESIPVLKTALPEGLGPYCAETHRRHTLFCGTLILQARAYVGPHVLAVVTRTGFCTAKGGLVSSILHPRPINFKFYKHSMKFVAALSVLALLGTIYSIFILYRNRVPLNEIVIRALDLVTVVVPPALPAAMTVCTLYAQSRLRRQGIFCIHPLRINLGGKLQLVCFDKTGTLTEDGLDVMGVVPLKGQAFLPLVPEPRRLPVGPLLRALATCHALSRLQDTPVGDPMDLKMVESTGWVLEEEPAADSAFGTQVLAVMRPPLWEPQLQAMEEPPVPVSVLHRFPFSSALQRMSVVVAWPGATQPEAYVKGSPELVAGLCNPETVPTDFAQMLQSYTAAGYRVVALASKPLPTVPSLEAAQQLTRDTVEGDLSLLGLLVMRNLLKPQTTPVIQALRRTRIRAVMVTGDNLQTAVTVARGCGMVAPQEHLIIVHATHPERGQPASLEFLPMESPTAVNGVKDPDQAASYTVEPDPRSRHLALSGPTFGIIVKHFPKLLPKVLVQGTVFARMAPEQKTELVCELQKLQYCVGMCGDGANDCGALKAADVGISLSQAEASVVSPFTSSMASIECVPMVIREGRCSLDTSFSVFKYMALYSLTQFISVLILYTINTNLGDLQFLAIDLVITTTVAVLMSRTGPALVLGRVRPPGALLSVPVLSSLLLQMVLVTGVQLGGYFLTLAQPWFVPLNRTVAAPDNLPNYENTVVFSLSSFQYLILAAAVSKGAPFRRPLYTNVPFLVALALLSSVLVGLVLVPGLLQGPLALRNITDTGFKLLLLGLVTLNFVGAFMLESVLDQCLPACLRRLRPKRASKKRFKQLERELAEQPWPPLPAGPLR
Description: Membrane fractionation - Transduced SH-SY5Y cells were seeded in […] at a density of 6 x 10^6 cells per plate. 24 h later, the cells were harvested following trypsinization and brief centrifugation (300 x g, 5 min). Subcellular fractionation was performed by differential centrifugation. The microsomal protein concentration was measured using the bicinchoninic acid assay (Thermo Fischer Scientific, Pierce) according to the manufacturer's instructions.
ATPase assay - The ATPase activity of ATP13A2 was assessed using a commercially available luminescence assay (ADP-Glo Max assay, Promega) that monitors the production of ADP via luciferase activity. The reactions were performed for 30 min (37°C) in a final volume of 25 µl. […] The assay was started by the addition of 5 mM ATP and was terminated by adding 25 µl of ADP-Glo Reagent. The 96-well plate was then incubated for 40 min at room temperature, followed by the addition of 50 µl of ADP-Glo Max Detection Reagent. After 40 min, luminescence was detected using a FlexStation 3.0 system (Molecular Devices). Dose-response curves and n/Km/Vmax values were calculated using GraphPad Prism Software (GraphPad Software Inc.).

Purified ATP13A2 = target: T2, Purified ATP13A2 (Homo sapiens, UniProt Q9NQ11); assay: ATPase assay (ADP-Glo Max), purified ATP13A2 from yeast expression system; type: biochemical; parameters: we obtained >95% pure, full length and solubilized ATP13A2; biotin acceptor domain (BAD) tag behind a thrombin cleavage site (C, cleaved yes); made in house; host or cells: S. cerevisiae W303-1B/Gal4-ΔPep4, pYeDP60 vector; details: for lipid concentration of maximal effect on ATPase activity / ATP13A2 activity, effect of regulatory lipids: purified ATP13A2; for lipid concentration of maximal effect on ATPase activity: 2 mM SPM; for ATP13A2 activity, effect of regulatory lipids: only in the presence of SPM
T2 sequence (Q9NQ11 1-1175 isoform Q9NQ11-3): T1 sequence (Q9NQ11 1-1175 isoform Q9NQ11-3)
Description: ATPase assay - The ATPase activity of ATP13A2 was assessed using a commercially available luminescence assay (ADP-Glo Max assay, Promega) that monitors the production of ADP via luciferase activity. The reactions were performed for 30 min (37°C) in a final volume of 25 µl. The assay reaction mixture contained 50 mM MOPS-KOH (pH 7), 100 mM KCI, 11 mM MgCl2, 1 mM DTT, 195 µM DDM, various concentrations of the indicated compound, and either microsomes (5 µg) harvested from SH-SY5Y cells overexpressing ATP13A2 (WT or mutants) or purified ATP13A2 (0.5 µg). When purified ATP13A2 was used, we included 125 µM PA, 125 µM PI(3,5)P2 and 19.5 µM DDM in the reaction buffer. The assay was started by the addition of 5 mM ATP and was terminated by adding 25 µl of ADP-Glo Reagent. The 96-well plate was then incubated for 40 min at room temperature, followed by the addition of 50 µl of ADP-Glo Max Detection Reagent. After 40 min, luminescence was detected using a FlexStation 3.0 system (Molecular Devices). Dose-response curves and n/Km/Vmax values were calculated using GraphPad Prism Software (GraphPad Software Inc.).
Transformation and overexpression of ATP13A2 in yeast - The S. cerevisiae W303-1B/Gal4-ΔPep4 strain (leu2-3, his3-11,15, trp1-1::TRP1-GAL10-GAL4, ura3-1, ade2-1, canr, cir^+, ΔPep4 MAT; a kind gift from Rosa Lopez Marques) was transformed according to the lithium acetate/single-stranded carrier DNA/polyethylene glycol method [Gietz, R. D. & Woods, R. A. Methods Enzymol 350, 87-96 (2002)], with the pYeDP60 vector containing a yeast codon optimized version of human ATP13A2 variant 2 (WT or the catalytically dead E343A mutant) followed by a thrombin cleavage site and a C-terminal BAD tag [Azouaoui, H. et al. PLoS One 9, e112176, (2014); Jidenko, M. et al.Protein Expr Purif 48, 32-42, (2006)]. The transformation mixture was grown for 48 h at 30°C on minimal medium agar plates lacking uracil (0.54% yeast nitrogen base without amino acids, 0.12% yeast drop-out mix without Ura, 2% glucose, and 2% agar) to select yeast colonies that acquired the plasmid. These colonies were then cultured in 20 ml of MM-Ura medium (0.67% yeast nitrogen base without amino acids, 0.19% yeast drop-out mix without Ura, and 2% glucose) and grown for 24 h at 28°C and 200 rpm. The MM-Ura yeast pre-culture was used to inoculate 100 ml of MM-Ura medium to a final OD600 of 0.2, followed by a 12 h incubation period (28°C and 200 rpm). The second pre-culture was inoculated into 4.5 l of YPGE2X medium (2% yeast extract, 2% bactopeptone, 1% glucose, and 2.7% ethanol) to a final OD600 of 0.05 and grown for 36 h (28°C and 175 rpm). ATP13A2-BAD expression was induced with 2% galactose, followed by a second galactose induction 12 h later. After another 12 h, the pellet was collected (1,000 x g; 10 min; 4°C).
Yeast membrane preparation - Yeast cells were broken with glass beads using a BeadBeater (BioSpec products). The lysis buffer contained 50 mM Tris-HCI (pH 7.5), 1 mM EDTA, 0.6 M sorbitol, 1 mM phenylmethylsulfonyl fluoride and SigmaFast protease inhibitor. To remove cell debris and nuclei, the crude extract was centrifuged at 2,000 x g for 20 min (4°C). The supernatant (S1) was centrifuged at 20,000 x g for 20 min (4°C) to pellet the heavy membrane fraction (P2), and the resulting supernatant (S2) was further centrifuged at 200,000 x g for 1 h (4°C). The resulting pellet (i.e., the light membrane fraction, P3) was resuspended in 20 mM HEPES-Tris (pH 7.4), 0.3 M sucrose and 0.1 mM CaCl2. The total protein concentration was determined using a Bradford assay (B6916, Sigma-Aldrich).
ATP13A2-BAD purification - The method used to purify ATP13A2 was based on the purification of overexpressed Drs2p from yeast membranes. Yeast P3 membranes were diluted to 5 mg of total protein/ml in SSR buffer (50 mM MOPS-KOH (pH 7), 100 mM KCI, 20% glycerol, 5 mM MgCl2, 1 mM DTT, and SigmaFast protease inhibitor cocktail) and solubilized using DDM, with a detergent to protein ratio of 1:1.

SH-SY5Y cells = assay: MUH cytotoxicity assay; type: cell-based, human; details: increasing concentrations, 24 h
Description: MUH cytotoxicity assay - SH-SY5Y cells were seeded in 96-well plates (1 X 10^4 cells per well) and allowed to adhere overnight. The cells were subsequently treated with increasing doses of the indicated compounds for 24-48 h. Following exposure, the cells were washed with PBS and stained with 300 µg/ml MUH (prepared in DMSO, dissolved in PBS) for 30 min at 37°C.

ATPase activity of ATP13A2 WT, screen for candidate substrates (Microsomal ATP13A2) | SMILES | ATPase activity of ATP13A2, dose-response (Microsomal ATP13A2) | further results
 | CC(=O)NCCCNCCCCNCCCN [N1-acetylspermine, N^1-acetylspermine trihydrochloride] | stimulate ATPase activity in a concentration-dependent manner | Vmax ± SEM (Microsomal ATP13A2; Microsomal ATP13A2): 98 ± 5 nmol ADP/mg/min
 | NCCCCCN [cadaverine] | did not induce ATP13A2 activity | 
 | CCCCCCCC/C=C\CCCCCCCC(=O)OC[C@H](COP(=O)(O)O)OC(=O)CCCCCCC/C=C\CCCCCCCC [PA, 1,2-dioleoyl-sn-glycero-3-phosphate (sodium salt)] |  | lipid concentration of maximal effect on ATPase activity (Purified ATP13A2): 125 µM; ATP13A2 activity, effect of regulatory lipids (Purified ATP13A2): strongly stimulated
did not increase ATP13A2 activity | [Cl-].[Cl-].[Zn+2] [ZnCl2] |  | 
 | [Na+].[Na+].[Na+].[O]=[V]([O-])([O-])[O-] [orthovanadate, sodium orthovanadate] |  | SPM-induced ATPase activity, inhibition (Purified ATP13A2; 1 mM SPM, 0.25 mM orthovanadate, 125 µM PA/PI(3,5)P2): blocked
did not increase ATP13A2 activity | [Cl][Fe]([Cl])[Cl] [FeCl3] |  | 
 | CCCCCCCC/C=C\CCCCCCCC(=O)OC[C@H](COP(=O)(O)O[C@@H]1[C@H](O)[C@H](OP(=O)(O)O)[C@@H](O)[C@H](OP(=O)(O)O)[C@H]1O)OC(=O)CCCCCCC/C=C\CCCCCCCC [PI(3,5)P2, 1,2-dioleoyl-sn-glycero-3-phospho-(1'-myo-inositol-3',5'-bisphosphate) (ammonium salt)] |  | lipid concentration of maximal effect on ATPase activity (Purified ATP13A2): 125 µM; ATP13A2 activity, effect of regulatory lipids (Purified ATP13A2): strongly stimulated
did not increase ATP13A2 activity | [Cl][Mn][Cl] [MnCl2] |  | 
 | N=C(N)NCCCCN.O=S(=O)(O)O [agmatine, agmatine sulfate salt] | did not induce ATP13A2 activity | 
 | Cl.NCCc1ccc(O)c(O)c1 [dopamine, dopamine hydrochloride] | did not induce ATP13A2 activity | 
had no effect | [Ca+2].[Cl-].[Cl-] [CaCl2] |  | 
 | Cl.Cl.NCCCCN [putrescine, putrescine dihydrochloride] | did not induce ATP13A2 activity | viability of control cells (SH-SY5Y cells): not cytotoxic
 | NCCc1c[nH]cn1 [histamine] | did not induce ATP13A2 activity | 
